Experiments:
[1] = target: PI3 Kinase α (Homo sapiens, UniProt P42336); assay: Fluorescence polarization assay for PI3K (PI3 Kinase α); type: biochemical; details: diC8-PI(4,5)P2 substrate, 25 μM ATP, one hour at 25° C.
[2] = target: PI3 Kinase γ (Homo sapiens, UniProt P48736); assay: Fluorescence polarization assay for PI3K (PI3 Kinase γ); type: biochemical; details: diC8-PI(4,5)P2 substrate, 25 μM ATP, one hour at 25° C.
PI3 Kinase γ, sequence (P48736 whole entry): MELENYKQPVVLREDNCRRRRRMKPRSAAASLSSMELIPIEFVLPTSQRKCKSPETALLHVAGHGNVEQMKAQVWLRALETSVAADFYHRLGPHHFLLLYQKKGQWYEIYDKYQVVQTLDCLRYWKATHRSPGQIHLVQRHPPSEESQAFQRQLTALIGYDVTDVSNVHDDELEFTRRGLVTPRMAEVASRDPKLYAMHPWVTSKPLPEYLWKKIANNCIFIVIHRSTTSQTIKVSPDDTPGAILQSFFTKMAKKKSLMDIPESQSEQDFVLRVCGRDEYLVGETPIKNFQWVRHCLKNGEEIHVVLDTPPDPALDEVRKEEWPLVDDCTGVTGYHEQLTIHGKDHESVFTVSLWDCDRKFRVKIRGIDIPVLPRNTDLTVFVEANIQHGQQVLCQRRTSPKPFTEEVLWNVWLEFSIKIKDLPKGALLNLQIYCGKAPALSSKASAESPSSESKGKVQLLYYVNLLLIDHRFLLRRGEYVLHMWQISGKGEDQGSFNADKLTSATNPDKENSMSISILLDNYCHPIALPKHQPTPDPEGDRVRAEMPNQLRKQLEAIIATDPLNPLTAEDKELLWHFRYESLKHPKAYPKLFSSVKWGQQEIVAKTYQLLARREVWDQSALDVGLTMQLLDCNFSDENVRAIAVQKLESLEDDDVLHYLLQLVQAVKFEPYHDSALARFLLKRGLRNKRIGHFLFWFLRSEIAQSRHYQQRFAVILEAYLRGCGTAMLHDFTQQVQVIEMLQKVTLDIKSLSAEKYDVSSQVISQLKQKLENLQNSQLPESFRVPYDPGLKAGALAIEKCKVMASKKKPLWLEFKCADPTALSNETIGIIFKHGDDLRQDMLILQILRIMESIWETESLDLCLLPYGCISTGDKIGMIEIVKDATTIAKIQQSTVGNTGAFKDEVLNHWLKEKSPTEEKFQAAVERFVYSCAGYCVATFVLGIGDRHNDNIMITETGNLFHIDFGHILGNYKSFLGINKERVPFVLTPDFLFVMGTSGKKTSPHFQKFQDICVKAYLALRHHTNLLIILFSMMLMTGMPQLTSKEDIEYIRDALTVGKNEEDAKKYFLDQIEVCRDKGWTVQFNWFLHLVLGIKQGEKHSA

PI3 Kinase α, sequence (P42336 whole entry): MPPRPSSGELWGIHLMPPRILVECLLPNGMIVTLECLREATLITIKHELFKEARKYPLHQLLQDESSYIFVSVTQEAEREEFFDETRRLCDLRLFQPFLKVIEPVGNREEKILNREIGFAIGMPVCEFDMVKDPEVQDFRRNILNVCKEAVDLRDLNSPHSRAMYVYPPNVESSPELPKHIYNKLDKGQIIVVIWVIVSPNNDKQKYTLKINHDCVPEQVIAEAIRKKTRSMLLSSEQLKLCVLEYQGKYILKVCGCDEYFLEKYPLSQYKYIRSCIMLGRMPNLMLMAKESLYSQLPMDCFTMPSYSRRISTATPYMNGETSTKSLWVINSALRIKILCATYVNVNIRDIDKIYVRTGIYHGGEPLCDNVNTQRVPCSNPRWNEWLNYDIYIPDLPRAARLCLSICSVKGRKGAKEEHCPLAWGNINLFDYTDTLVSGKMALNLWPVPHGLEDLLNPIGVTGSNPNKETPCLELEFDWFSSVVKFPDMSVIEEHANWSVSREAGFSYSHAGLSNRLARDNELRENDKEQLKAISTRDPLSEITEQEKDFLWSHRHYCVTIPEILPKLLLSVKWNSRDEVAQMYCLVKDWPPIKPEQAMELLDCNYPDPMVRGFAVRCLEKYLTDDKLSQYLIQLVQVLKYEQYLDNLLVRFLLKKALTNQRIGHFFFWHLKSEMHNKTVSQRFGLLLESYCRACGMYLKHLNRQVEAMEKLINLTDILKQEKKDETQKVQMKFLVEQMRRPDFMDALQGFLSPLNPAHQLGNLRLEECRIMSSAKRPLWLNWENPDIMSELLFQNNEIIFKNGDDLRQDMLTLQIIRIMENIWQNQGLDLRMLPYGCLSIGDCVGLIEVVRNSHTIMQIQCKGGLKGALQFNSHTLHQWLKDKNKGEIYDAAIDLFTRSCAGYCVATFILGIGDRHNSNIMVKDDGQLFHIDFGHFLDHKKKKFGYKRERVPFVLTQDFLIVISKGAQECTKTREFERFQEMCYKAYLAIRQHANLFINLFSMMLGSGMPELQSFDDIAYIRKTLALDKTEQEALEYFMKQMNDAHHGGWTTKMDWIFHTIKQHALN
PI3 Kinase α, sequence (P27986 whole entry partner): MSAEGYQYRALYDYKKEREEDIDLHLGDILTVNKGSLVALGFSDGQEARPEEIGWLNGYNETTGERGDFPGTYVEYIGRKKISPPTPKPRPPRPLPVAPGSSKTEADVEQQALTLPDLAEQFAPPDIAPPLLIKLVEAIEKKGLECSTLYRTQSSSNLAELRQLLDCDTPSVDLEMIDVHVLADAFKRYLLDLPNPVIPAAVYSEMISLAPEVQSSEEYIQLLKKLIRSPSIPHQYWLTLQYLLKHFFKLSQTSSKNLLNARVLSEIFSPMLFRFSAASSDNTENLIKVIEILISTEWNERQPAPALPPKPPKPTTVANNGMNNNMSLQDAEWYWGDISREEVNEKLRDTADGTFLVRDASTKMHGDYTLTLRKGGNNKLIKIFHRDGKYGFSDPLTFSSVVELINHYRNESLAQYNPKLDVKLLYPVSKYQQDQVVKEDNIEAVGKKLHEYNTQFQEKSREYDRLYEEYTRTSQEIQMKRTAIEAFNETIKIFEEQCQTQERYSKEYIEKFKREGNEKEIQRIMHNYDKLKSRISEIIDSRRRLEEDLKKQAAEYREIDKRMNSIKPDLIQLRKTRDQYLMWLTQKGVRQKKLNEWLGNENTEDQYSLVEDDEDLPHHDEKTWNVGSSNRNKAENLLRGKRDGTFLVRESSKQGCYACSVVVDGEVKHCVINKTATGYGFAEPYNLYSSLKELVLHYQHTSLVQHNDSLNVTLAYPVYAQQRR

Compound	IC50 [1] [µM]	IC50 [2] [µM]
CC(C)n1nnc2c(N3CCOCC3)nc(-c3ccc(NC(=O)Nc4ccc(C(N)=O)cc4)cc3)nc21 [Example 93, 4-{3-[4-(3-isopropyl-7-morpholin-4-yl-3H-[1,2,3]triazolo[4,5-d]pyrimidin-5-yl)-phenyl]-ureido}-benzamide]	0.0025	0.018
Cn1cccc1CN1CCC(n2nnc3c(N4CCOCC4)nc(-c4cncc(O)c4)nc32)CC1 [Example 19, 5-(3-{1-[(1-methyl-1H-pyrrol-2-yl)methyl]piperidin-4-yl}-7-morpholin-4-yl-3H-[1,2,3]triazolo[4,5-d]pyrimidin-5-yl)pyridin-3-ol]	0.083	0.277
CC(=O)NCCn1nnc2c(N3CCOCC3)nc(-c3cccc(O)c3)nc21 [Example 7, N-{2-[5-(3-hydroxyphenyl)-7-morpholin-4-yl-3H-[1,2,3]triazolo[4,5-d]pyrimidin-3-yl]ethyl}acetamide]	0.171	0.406
CCn1nnc2c(N3CCOCC3)nc(-c3ccc(NC(=O)Nc4ccc(C(=O)NCCN5CCN(C)CC5)cc4)cc3)nc21 [Example 49, 4-({[4-(3-ethyl-7-morpholin-4-yl-3H-[1,2,3]triazolo[4,5-d]pyrimidin-5-yl)phenyl]carbamoyl}amino)-N-[2-(4-methylpiperazin-1-yl)ethyl]benzamide]	< 0.0031	0.025
O=C(c1ccc(F)cc1)N1CCN(CCn2nnc3c(N4CCOCC4)nc(-c4cccc(O)c4)nc32)CC1 [Example 101, 3-(3-{2-[4-(4-fluorobenzoyl)piperazin-1-yl]ethyl}-7-morpholin-4-yl-3H-[1,2,3]triazolo[4,5-d]pyrimidin-5-yl)phenol]	0.537	3.55
Nc1ncc(-c2nc(N3CCOCC3)c3nnn(C4CCN(Cc5ccccc5)CC4)c3n2)cn1 [Example 2, 5-[3-(1-benzylpiperidin-4-yl)-7-morpholin-4-yl-3H-[1,2,3]triazolo[4,5-d]pyrimidin-5-yl]pyrimidin-2-amine]	1.82	4.33
CCN1CCCC1CNC(=O)c1ccc(NC(=O)Nc2ccc(-c3nc(N4CCOCC4)c4nnn(CC)c4n3)cc2)cc1 (stereo not drawn) [Example 59, 4-({[4-(3-ethyl-7-morpholin-4-yl-3H-[1,2,3]triazolo[4,5-d]pyrimidin-5-yl)phenyl]carbamoyl}amino)-N-[(1-ethylpyrrolidin-2-yl)methyl]benzamide]	0.0025	0.026
CCn1nnc2c(N3CCOC[C@@H]3C)nc(-c3ccc(NC(=O)Nc4ccc(N5CCN(C)CC5)cc4)cc3)nc21 [Example 76, (S)-1-(4-(3-ethyl-7-(3-methylmorpholino)-3H-[1,2,3]triazolo[4,5-d]pyrimidin-5-yl)phenyl)-3-(4-(4-methylpiperazin-1-yl)phenyl)urea]	0.005	0.032
O=C(c1ccccc1)N1CCN(CCn2nnc3c(N4CCOCC4)nc(-c4cccc(O)c4)nc32)CC1 [Example 99, 3-{3-[2-(4-benzoylpiperazin-1-yl)ethyl]-7-morpholin-4-yl-3H-[1,2,3]triazolo[4,5-d]pyrimidin-5-yl}phenol]	0.924	5.75
Cc1ccc(CN2CCC(n3nnc4c(N5CCOCC5)nc(-c5cncc(O)c5)nc43)CC2)s1 [Example 21, 5-(3-{1-[(5-methyl-2-thienyl)methyl]piperidin-4-yl}-7-morpholin-4-yl-3H-[1,2,3]triazolo[4,5-d]pyrimidin-5-yl)pyridin-3-ol]	0.066	0.24
CCn1nnc2c(N3CCOC[C@@H]3C)nc(-c3ccc(NC(=O)Nc4ccc(OC)cc4)cc3)nc21 [Example 73, (S)-1-(4-(3-ethyl-7-(3-methylmorpholino)-3H-[1,2,3]triazolo[4,5-d]pyrimidin-5-yl)phenyl)-3-(4-methoxyphenyl)urea]	0.0155	0.0925
CCn1nnc2c(N3CCOCC3)nc(-c3ccc(NC(=O)NCCN(C)C)cc3)nc21 [Example 34, 1-[2-(dimethylamino)ethyl]-3-[4-(3-ethyl-7-morpholin-4-yl-3H-[1,2,3]triazolo[4,5-d]pyrimidin-5-yl)phenyl]urea]	0.132	0.309

The next lines start with the values.

IC50 [1] [µM]	IC50 [2] [µM]	Compound
0.42	1.4	CC(C)(C)NC(=O)c1ccc(Cn2nnc3c(N4CCOCC4)nc(-c4cccc(O)c4)nc32)cc1 [Example 222, N-tert-butyl-4-{[5-(3-hydroxyphenyl)-7-morpholin-4-yl-3H-[1,2,3]triazolo[4,5-d]pyrimidin-3-yl]methyl}benzamide]
1.15	2.42	CCN(CC)C(=O)c1ccc(Cn2nnc3c(N4CCOCC4)nc(-c4cccc(O)c4)nc32)cc1 [Example 220, N,N-diethyl-4-{[5-(3-hydroxyphenyl)-7-morpholin-4-yl-3H-[1,2,3]triazolo[4,5-d]pyrimidin-3-yl]methyl}benzamide]
0.24	0.24	O=C(Nc1ccc(F)cc1)c1ccc(Cn2nnc3c(N4CCOCC4)nc(-c4cccc(O)c4)nc32)cc1 [Example 217, N-(4-fluorophenyl)-4-{[5-(3-hydroxyphenyl)-7-morpholin-4-yl-3H-[1,2,3]triazolo[4,5-d]pyrimidin-3-yl]methyl}benzamide]
0.122	1.36	CC(C)(C)OC(=O)N1CCC(NC(=O)c2ccc(Cn3nnc4c(N5CCOCC5)nc(-c5cccc(O)c5)nc43)cc2)CC1 [Example 208, tert-butyl 4-[(4-{[5-(3-hydroxyphenyl)-7-morpholin-4-yl-3H-[1,2,3]triazolo[4,5-d]pyrimidin-3-yl]methyl}benzoyl)amino]piperidine-1-carboxylate]
0.0195	0.517	CC(C)(C)OC(=O)N1CC(Cn2nnc3c(N4CCOCC4)nc(-c4ccc(NC(=O)Nc5ccccc5)cc4)nc32)C1 [Example 188, tert-butyl 3-[(7-morpholin-4-yl-5-{4-[(phenylcarbamoyl)amino]phenyl}-3H-[1,2,3]triazolo[4,5-d]pyrimidin-3-yl)methyl]azetidine-1-carboxylate]
0.285	0.956	OCc1cncc(-c2nc(N3CCOCC3)c3nnn(C4CCNCC4)c3n2)c1 [Example 174, [5-(7-morpholin-4-yl-3-piperidin-4-yl-3H-[1,2,3]triazolo[4,5-d]pyrimidin-5-yl)pyridin-3-yl]methanol]
0.658	1.7	O=C(O)Cn1nnc2c(N3CCOCC3)nc(-c3cccc(CO)c3)nc21 [Example 240, {5-[3-(hydroxymethyl)phenyl]-7-morpholin-4-yl-3H-[1,2,3]triazolo[4,5-d]pyrimidin-3-yl}acetic acid]
0.0135	0.0495	O=C(Nc1ccc(-c2nc(N3CCOCC3)c3nnn(C4CCNCC4)c3n2)cc1)Nc1cccnc1 [Example 163, 1-[4-(7-morpholin-4-yl-3-piperidin-4-yl-3H-[1,2,3]triazolo[4,5-d]pyrimidin-5-yl)phenyl]-3-pyridin-3-ylurea]
0.0265	0.119	CNCCNC(=O)Nc1ccc(-c2nc(N3CCOCC3)c3nnn(CC(F)(F)F)c3n2)cc1 [Example 140, 1-[2-(methylamino)ethyl]-3-{4-[7-morpholin-4-yl-3-(2,2,2-trifluoroethyl)-3H-[1,2,3]triazolo[4,5-d]pyrimidin-5-yl]phenyl}urea]
0.021	1.43	CC(C)(C)OC(=O)N1CC(n2nnc3c(N4CCOCC4)nc(-c4ccc(NC(=O)Nc5cccs5)cc4)nc32)C1 [Example 132, tert-butyl 3-(7-morpholin-4-yl-5-{4-[(2-thienylcarbamoyl)amino]phenyl}-3H-[1,2,3]triazolo[4,5-d]pyrimidin-3-yl)azetidine-1-carboxylate]
0.104	0.392	CN(C)CCNC(=O)Nc1ccc(-c2nc(N3CCOCC3)c3nnn(C4CCNCC4)c3n2)cc1 [Example 152, 1-(2-(dimethylamino)ethyl)-3-(4-(7-morpholino-3-(piperidin-4-yl)-3H-[1,2,3]triazolo[4,5-d]pyrimidin-5-yl)phenyl)urea]
0.556	2.14	Oc1cccc(-c2nc(N3CCOCC3)c3nnn(CCN4CCN(C5CCCCC5)CC4)c3n2)c1 [Example 106, 3-{3-[2-(4-cyclohexylpiperazin-1-yl)ethyl]-7-morpholin-4-yl-3H-[1,2,3]triazolo[4,5-d]pyrimidin-5-yl}phenol]
0.014	0.0447	COc1ccc(NC(=O)Nc2ccc(-c3nc(N4CCOCC4)c4nnn(CCO)c4n3)cc2)cc1 [Example 185, 1-{4-[3-(2-hydroxyethyl)-7-morpholin-4-yl-3H-[1,2,3]triazolo[4,5-d]pyrimidin-5-yl]phenyl}-3-(4-methoxyphenyl)urea]
0.02	0.047	O=C(Nc1ccc(-c2nc(N3CCOCC3)c3nnn(CCO)c3n2)cc1)Nc1cccnc1 [Example 184, 1-{4-[3-(2-hydroxyethyl)-7-morpholin-4-yl-3H-[1,2,3]triazolo[4,5-d]pyrimidin-5-yl]phenyl}-3-pyridin-3-ylurea]
0.0065	0.022	Cn1nnc2c(N3CCOCC3)nc(-c3ccc(NC(=O)Nc4cccs4)cc3)nc21 [Example 200, 1-[4-(3-methyl-7-morpholin-4-yl-3H-[1,2,3]triazolo[4,5-d]pyrimidin-5-yl)phenyl]-3-(2-thienyl)urea]
1.13	0.95	O=C(c1ccc(Cn2nnc3c(N4CCOCC4)nc(-c4cccc(O)c4)nc32)cc1)N1CCCCC1 [Example 227, 3-{7-morpholin-4-yl-3-[4-(piperidin-1-ylcarbonyl)benzyl]-3H-[1,2,3]triazolo[4,5-d]pyrimidin-5-yl}phenol]
0.637	2.23	O=C(Cn1nnc2c(N3CCOCC3)nc(-c3cccc(CO)c3)nc21)Nc1cccnc1 [Example 235, 2-{5-[3-(hydroxymethyl)phenyl]-7-morpholin-4-yl-3H-[1,2,3]triazolo[4,5-d]pyrimidin-3-yl}-N-pyridin-3-ylacetamide]
0.0815	0.406	Oc1cccc(-c2nc(N3CCOCC3)c3nnn(C4CCNCC4)c3n2)c1 [Example 144, 3-(7-morpholin-4-yl-3-piperidin-4-yl-3H-[1,2,3]triazolo[4,5-d]pyrimidin-5-yl)phenol]
